Results as given in patent publication US20240174703A1, “THREE-COORDINATE AU(I) PROBES AND USE IN SELECTIVELY DISRUPTING MITOCHONDRIA IN CANCER CELLS” (University of Kentucky Research Foundation, priority 2021, published 2024).

How the values were obtained:
MDA-MB-231 [1] = test: Cell viability (MTT assay) in TNBC cell line MDA-MB-231; assay type: cell-based; settings: MDA-MB-231, MTT assay, 72 hours, mean ± s.e.m., n = 3
Description: Cell Culture. All cell lines were purchased from ATCC and routinely grown in a humidified incubator at 37° C. with 5-10% CO2. MDA-MB-468, MDA-MB-231, MDA-MB-175, MRCS, RPE-NEO, HCT116, and K562N were grown in DMEM supplemented with 10% FBS, 1% amphotericin and 1% penicillin/streptomycin. A2780 cells were grown in RPMI supplemented with 10% FBS, 1% amphotericin, and 1% penicillin/streptomycin, and 4 mM glutamine. All supplements along with PBS and trypsin-EDTA were purchased from Corning Inc. and used as is.
Cell Viability of AuTri-1-10 (Adherent Cell Lines). The cell viability of all 10 complexes were performed in MDA-MB-231. Additionally, AuTri-9 was evaluated in the following: MDA-MB-175, MA-MB-468, A2780, HCT116, OVCAR8 and MRCS. Cells were grown to confluency and trypsin was added to detach and harvest cells. The cells were washed with 2 mL of PBS and suspended in 10 mL of the appropriate media. The cells were centrifuged at 2000 rpm for 5 minutes and the pellet washed with 2 mL of PBS then suspended in 5 mL of the appropriate media. The cells were plated at a density of 2,000 cells/well in a 96-well clear bottom plate and allowed to adhere overnight at 37° C. with 5-10% CO2. The compounds were prepared as a stock in DMSO and used fresh. The compounds were added at seven concentrations (<1% DMSO) with a 3× serial dilution starting at 50 μM for the highest concentration and incubated at 37° C. for 72 h with 5-10% CO2. 1% DMSO were added to control wells as the vehicle control. The medium was removed and a solution of MTT (100 μL, prepared by dissolving MTT at 5 mg/mL and diluting by 10x with DMEM) was added to each well and incubated for 4 h at 37° C. with 5-10% CO2. The dye was removed from each well and 100 μL of DMSO was added to induce cell lysis. The plates were read using a Genios plate reader (λ=570 nm).

[2] = based on gold; cited from earlier work
MDA-MB-231 [3] = test: Transmission electron microscopy of mitochondrial morphology; assay type: cell-based; settings: AuTri-9 10 μM for 1 h
Description: Transmission Electron Microscopy. MDA-MB-231 cells were seeded in 6 well plates and allowed to grow to 85% confluency. The cells were then treated with AuTri-9 at a concentration of 10 μM (<1% DMSO) for 1 h at 37° C. Growth media were removed and immediately and added 3% glutaraldehyde at 4° C. in 0.1 M Sorenson's or Cacodylate Buffer. After 5 minutes remove fix and replace with fresh fixative, leave for 45 min-1 hr at 4° C., washed in 0.1 M buffer w/5% sucrose 4×, 5 minutes each. Post fix, the cells were stained with 1% OsO4 in 0.1 M buffer for 1 hr at 4° C. and washed in 0.1 M buffer 1×. The cells were dehydrated in graded ethanols, 5 minutes each, from 50% through 100% and absolute ethanol (2×) at 4° C. After the last alcohol wash remove the residual alcohol with a small pipette and immediately add straight resin (14.5 g Eponate 12, 8.0 g DDSA, 7.15 g NMA, and 0.85 gm BDMA) to the dish. Swirl the dish and then remove as much of the resin, (which may contain residual alcohol), with a plastic pipette being careful not to disturb the cell layer. Then add straight resin 2× for 1-2 hours and place under the lamp, on a shaker. Pour off the 2nd straight resin wash, let the plate drain well (leaving a layer of resin on the bottom) and invert labeled beem capsules into each well that have had the conical ends removed. […]

SMILES: c1cnc2c(c1)ccc1cccnc12 [1,10-phenantrholine]
- IC50 (MDA-MB-231 [1]; Homo sapiens): 7.21 ± 1.68 µM

SMILES: Cc1ccnc2c1ccc1c(C)ccnc12 [4,7-dimethylphenanthroline]
- IC50 (MDA-MB-231 [1]; Homo sapiens): 14.1 ± 2.58 µM

SMILES: CC(=O)OC[C@H]1O[C@@H]([S-])[C@H](OC(C)=O)[C@@H](OC(C)=O)[C@@H]1OC(C)=O.CCP(CC)CC.[Au+] [Auranofin]
- MTD (maximum tolerated dose) [2]: 12 mg/kg
- IC50 (MDA-MB-231 [1]): 1.31 ± 0.15 µM

SMILES: c1ccc(-c2ccnc3c2ccc2c(-c4ccccc4)ccnc23)cc1 [Bathophenanthroline]
- IC50 (MDA-MB-231 [1]): 7.48 ± 1.64 µM

SMILES: c1ccc(-c2ccccn2)nc1 [Bipyridine]
- IC50 (MDA-MB-231 [1]): 17.5 ± 0.354 µM

SMILES: N.N.[Cl][Pt][Cl] [Cisplatin]
- IC50 (MDA-MB-231 [1]): 34.6 ± 0.783 µM

SMILES: OO [H2O2, hydrogen peroxide]
- mitochondrial morphology by TEM (MDA-MB-231 [3]): distinct cytoplasmic swelling and membrane rupture (white star) is observed; however, the mitochondria structure remains intact

SMILES: [F][Sb-]([F])([F])([F])([F])[F].[Na+] [NaSbF6]
- IC50 (MDA-MB-231 [1]): > 50 µM

SMILES: CN[C@@H]1C[C@H]2O[C@@](C)([C@@H]1OC)n1c3ccccc3c3c4c(c5c6ccccc6n2c5c31)C(=O)NC4 [staurosporine]
- mitochondrial morphology by TEM (MDA-MB-231 [3]): no distinct morphological changes to mitochondria
